In US6924298B2, “2-(3,5-Disubstituted-4-pyridyl)-4-(thienyl, thiazolyl or arylphenyl)-1,3-oxazoline compounds” (Dow AgroSciences LLC, priority 2000, dated 2005):
Like-named read-outs stand apart in the source and are kept apart here.

Assays:
Assay type in all cases: in vivo
[1] = system: cotton aphid (Aphis gossypii); assay: Insecticidal test for cotton aphid, spray on infested squash cotyledons; details: for pest or weed control at 50 ppm: Aphis gossypii, 72 h, read-out: CA: activity at 50 ppm against cotton aphid (% Control rating)
Protocol: Insecticidal Test for Cotton Aphid (Aphis gossypii)
To prepare spray solutions, 1 mg of each test compound was dissolved into 1 mL of a 90:10 acetone:ethanol solvent. This 1 mL of chemical solution was added to 19 mL of water containing 0.05% Tween 20 surfactant to produce a 50 ppm spray solution.
Squash cotyledons were infested with cotton aphid (all life stages)16-20 hours prior to application of spray solution. The solution was sprayed on both sides of each infested squash cotyledon (0.5 mL×2 each side) with a sweeping action until runoff. The plants were allowed to air dry and held for 3 days in a controlled room at 26° C. and 40% RH after which time the test was graded. Grading was by actual count using a dissecting microscope and comparison of test counts to the untreated check. Results are given in Tables 1-4 as percent control based on population reduction versus the untreated.

[2] = system: two-spotted spider mite (Tetranychus urticae); assay: Insecticidal test for two-spotted spider mite, ovicide method on cotton leaf discs; details: hatched larvae after 6 days; for pest or weed control: Tetranychus urticae, foliar, 144 h, read-out: SM: activity against two-spotted spider mite (% Control rating)
Protocol: Insecticidal Test for Two-Spotted Spider Mite (Tetranychus urticae) Ovicide Method: Ten adult female two-spotted spider mites were placed on eight 2.2 cm leaf discs of cotton leaf, allowed to oviposit over 24 hours, and thereafter removed. […] Discs were placed on an agar substrate and held at 24° C. and 90% RH for 6 days.

[3] = system: tobacco budworm (Heliothis virescens); assay: Insecticidal test for tobacco budworm, treated cotton cotyledon leaf disc; details: for pest or weed control at 400 ppm: Heliothis virescens, foliar, 120 h, read-out: TBW: activity at 400 ppm against tobacco budworm (% Control rating)
Protocol: (§1) Insecticidal Test for Tobacco Budworm (Heliothis virescens), Beet Armyworm (Spodoptera exigua), and Cabbage Looper (Trichoplusia ni).
(§2) To prepare the test solution, the test compound was formulated at 400 ppm in 7.5 mL of 2 acetone:1 tap water. 250 μL of the test solution was pipetted upon the surface of 8 mL of lepidopteran diet (modified Shorey) contained in each of five one-ounce plastic cups (one cup=1 replication). A second-instar beet armyworm was placed upon the treated diet in each cup once the solvent had air-dried. The solutions remaining after completing applications to the one-ounce cups were then used as leaf-dip solutions for 3.5 cm leaf discs cut from cabbage leaves and cotton cotyledons. Five discs of each type of plant were dipped until thoroughly coated into each rate of each compound (=5 replications of each treatment). After air-drying, the treated leaf discs were placed individually into one-ounce plastic cups. Each dried, treated cotton cotyledon disc was infested with a 2nd instar tobacco budworm larva, and each cabbage leaf disc was infested with a 2nd instar cabbage looper larva. Cups containing the treated substrates and larvae were capped and then held in a growth chamber at 25° C., 50-55% RH, and 14 hr light: 10 hr dark for 5 days.

[4] = system: beet armyworm (Spodoptera exigua); assay: Insecticidal test for beet armyworm, treated lepidopteran diet; details: for pest or weed control at 400 ppm: Spodoptera exigua, 120 h, read-out: BAW: activity at 400 ppm against beet armyworm (% Control rating)
Protocol: as §1, §2

[5] = system: cabbage looper (Trichoplusia ni); assay: Insecticidal test for cabbage looper, treated cabbage leaf disc; details: for pest or weed control at 400 ppm: Trichoplusia ni, foliar, 120 h, read-out: CL: activity at 400 ppm against cabbage looper (% Control rating)
Protocol: as §1, §2

[6] = system: sweetpotato whitefly (Bemisia tabacia); assay: Insecticidal test for sweetpotato whitefly, spray on cotton plants; details: 312 h, 200 ppm spray, large nymphs counted after 13 days, read-out: WF: activity at 200 ppm against whitefly (% Control rating)
Protocol: Insecticidal Test for Sweetpotato Whitefly (Bemisia tabacia)
Four mg of each test compound was dissolved by adding 4 mL of a 90:10 acetone:ethanol solvent mixture to the vial containing the sample compound. This solution was added to 16 mL of water containing 0.05% Tween 20 surfactant to produce 20 mL of a 200 ppm spray solution.
Five-week-old cotton plants reared in a greenhouse were stripped of all foliage except for the two uppermost true leaves that were greater than 5 cm in diameter.
These plants were then placed into a laboratory colony of whiteflies for two days for oviposition by the colony females. All whiteflies were then removed from the test plants with pressurized air. The spray solution was then applied to the test plants with a hand-held syringe fitted with hollow cone nozzle. One mL of spray solution was applied to each leaf top and bottom for a total of 4 mL per plant. Four replications of each test compound utilized a total of 16 mL spray solution. Plants were air dried and then placed in a holding chamber (28° C. and 60% RH) for 13 days. Compound efficacy was evaluated by counting, under an illuminated magnifying glass, the number of large nymphs (3rd-4th instar) per leaf.
Percent control based on reduction of large nymphs of a test compound compared to solution-only (no test compound) sprayed plants is reported in Tables 1-4.

[7] = 50 ppm spray, squash cotyledons, all life stages, 3 days
[8] = 400 ppm, leaf-dip cotton cotyledon disc, 2nd instar larvae, 5 days
[9] = 400 ppm, treated diet surface, second-instar larvae, 5 days
[10] = 400 ppm, leaf-dip cabbage leaf disc, 2nd instar larvae, 5 days

Molecule | pest or weed control at 50 ppm [1, 7] | pest or weed control at 200 ppm [6] | pest or weed control [2] | pest or weed control at 400 ppm [3, 8] | pest or weed control at 400 ppm [4, 9] | pest or weed control at 400 ppm [5, 10] | further results
4-[5-Methyl-4-(4′-trifluoromethoxybiphenyl)-4-yl)-4,5-dihydro-oxazol-2-yl]-3,5-dichloropyridines [Compound 47] |  |  |  |  |  |  | CA: activity at 50 ppm against cotton aphid (% Control rating) [1, 7]: A (90-100); SM: activity at 2.5 ppm against two-spotted spider mite (% Control rating) [2]: A (90-100); TBW: activity at 400 ppm against tobacco budworm (% Control rating) [3, 8]: A (90-100); BAW: activity at 400 ppm against beet armyworm (% Control rating) [4, 9]: A (90-100); CL: activity at 400 ppm against cabbage looper (% Control rating) [5, 10]: A (90-100)
FC(F)(F)c1ccc(-c2ccc(C3COC(c4c(Cl)cncc4Cl)=N3)cc2)cc1 (centres unmarked) [Compound 5] | 80 to 89% | < 50% | 90 to 100% | < 50% | 90 to 100% | 90 to 100% | 
FC(F)(F)Oc1ccc(-c2ccc(C3COC(c4c(Cl)cncc4Cl)=N3)cc2)cc1 (centres unmarked) [Compound 6] | 90 to 100% | < 50% | 90 to 100% |  | 90 to 100% | 90 to 100% | 
CCOc1ccc(-c2ccc(C3COC(c4c(Cl)cncc4Cl)=N3)cc2)cc1 (centres unmarked) [Compound 12, 2-(3,5-dichloro-4-pyridinyl)-4-(4-(4-ethoxyphenyl)phenyl)oxazoline] | 80 to 89% | 80 to 89% | 90 to 100% | 80 to 89% | 90 to 100% | 60 to 69% | 
Clc1ccc(-c2ccc(C3COC(c4c(Cl)cncc4Cl)=N3)cc2)cc1 (centres unmarked) [Compound 16] |  |  | 90 to 100% |  |  |  | pest or weed control at 50 ppm [1]: < 50%; pest or weed control at 400 ppm [3]: 60 to 69%; pest or weed control at 400 ppm [4]: 90 to 100%; pest or weed control at 400 ppm [5]: 90 to 100%
FC(F)(F)c1ccc(-c2ccc(C3COC(c4c(Cl)cncc4Cl)=N3)cc2)c(Cl)c1 (centres unmarked) [Compound 17] | 60 to 69% | < 50% | 90 to 100% |  | 90 to 100% | 90 to 100% | 
Fc1cccc(-c2ccc(C3COC(c4c(Cl)cncc4Cl)=N3)cc2)c1 (centres unmarked) [Compound 19] | < 50% | < 50% | 90 to 100% |  |  | 60 to 69% | 
Fc1ccc(-c2ccc(C3COC(c4c(Cl)cncc4Cl)=N3)cc2)cc1 (centres unmarked) [Compound 21] | 90 to 100% | < 50% | 90 to 100% |  | 80 to 89% |  | 
Cc1cccc(-c2ccc(C3COC(c4c(Cl)cncc4Cl)=N3)cc2)c1 (centres unmarked) [Compound 27] |  |  | 80 to 89% |  |  |  | pest or weed control at 50 ppm [1]: 90 to 100%; pest or weed control at 400 ppm [3]: < 50%; pest or weed control at 400 ppm [4]: 90 to 100%; pest or weed control at 400 ppm [5]: 90 to 100%
Fc1ccc(-c2ccc(C3COC(c4c(Cl)cncc4Cl)=N3)cc2)cc1C(F)(F)F (centres unmarked) [Compound 29] | < 50% |  | 70 to 79% | 80 to 89% | 80 to 89% | 90 to 100% | 
CC(C)c1ccc(-c2ccc(C3COC(c4c(Cl)cncc4Cl)=N3)cc2)cc1 (centres unmarked) [Compound 30] | < 50% | < 50% | 70 to 79% |  | 90 to 100% | 60 to 69% | 
Fc1c(-c2ccc(C3COC(c4c(Cl)cncc4Cl)=N3)cc2)cccc1C(F)(F)F (centres unmarked) [Compound 31] |  |  | < 50% | 60 to 69% |  |  | 
Fc1cc(C(F)(F)F)ccc1-c1ccc(C2COC(c3c(Cl)cncc3Cl)=N2)cc1 (centres unmarked) [Compound 32] | 70 to 79% | 90 to 100% | 90 to 100% | 90 to 100% | 90 to 100% |  | 
C[S+]([O-])c1ccc(-c2ccc(C3COC(c4c(Cl)cncc4Cl)=N3)cc2)cc1 (centres unmarked) [Compound 36] | < 50% | < 50% |  | 60 to 69% |  | 90 to 100% | 
Fc1cncc(F)c1C1=NC(c2ccc(I)cc2)CO1 (centres unmarked) [Compound 38, 2-(3,5-difluoro-4-pyridinyl)-4-(4-iodophenyl)oxazoline] | < 50% | 90 to 100% | 90 to 100% |  | 70 to 79% |  | 
Fc1cncc(F)c1C1=NC(c2ccc(-c3ccc(C(F)(F)F)cc3)cc2)CO1 (centres unmarked) [Compound 39, 2-(3,5-difluoro-4-pyridinyl)-4-(4-(4-trifluoromethylphenyl)phenyl)-oxazoline] | < 50% | < 50% | 90 to 100% |  | 80 to 89% | 90 to 100% | 
Cc1cc(-c2ccc(C(F)(F)F)cc2)ccc1C1COC(c2c(Cl)cncc2Cl)=N1 (centres unmarked) [Compound 43, 2-(3,5-dichloro-4-pyridinyl)-4-(4-(4-trifluoromethylphenyl)-2-methylphenyl)-oxazoline] | 80 to 89% | < 50% | 80 to 89% | 90 to 100% | 90 to 100% | 90 to 100% | 
C[C@H]1OC(c2c(Cl)cncc2Cl)=N[C@@H]1c1ccc(-c2ccc(OC(F)(F)F)cc2)cc1 [Compound 48] | 80 to 89% | < 50% | 50 to 59% | 90 to 100% |  | 90 to 100% | 
